According to PMC8004929, “Whole-Body Pharmacokinetics and Physiologically Based Pharmacokinetic Model for Monomethyl Auristatin E (MMAE)” (Journal of Clinical Medicine, 2021):
Square brackets hold non-standard residues; d marks the D form. Peptide text beside a SMILES is read from it. * marks the point of attachment. Dolaproine = CO[C@@H]([C@@H]1CCCN1)[C@@H](C)C(=O)O; Dil = CC[C@H](C)[C@H](NC)[C@@H](CC(=O)O)OC; X1 = C[C@@H](N*)[C@@H](O)c1ccccc1; NMeV = CN[C@H](C(=O)O)C(C)C

How the values were obtained:
[1] = mice, assumed from reported plasma protein binding; cited from earlier work
Text: Table 1 A glossary of literature-derived and estimated parameters used for the MMAE PBPK model. | column: Value || Each tissue compartment was further divided into the vascular, endothelial cell, interstitial, and cellular sub-compartments, and vascular space was divided into plasma and blood cells, as shown in Figure 1b. We aimed to make the sub-compartment division the same as our previously published platform antibody PBPK model, and thus, one can easily connect MMAE and an antibody PBPK model to build an ADC PBPK model. The rapid distribution of MMAE between plasma, endothelial cells, and interstitial space was assumed, and thus, the distribution rate between these compartments was set as a valu ... || Plasma protein binding plays a vital role in tissue distribution of small molecule drugs. […] Based on the reported mice data, fu,p was assumed to be 0.2, and it was used as a concentration-independent parameter in the PBPK model. Of note, species-dependence of fraction unbound should be considered when further scaling up the current MMAE PBPK model to different species. Based on free hormone hypothesis, it was assumed that ...

[2] = cited from earlier work
Text: The PBPK model included 16 tissues and a tumor compartment, and all of them were connected via blood flow and arranged anatomically. The tissue compartments included blood, lung, heart, kidney, muscle, skin, liver, brain, adipose, thymus, bone, small intestine, large intestine, spleen, pancreas, and other (i.e., carcass). All the other tissues, except those mentioned, were lumped into the ‘other’ compartment. The arterial blood to each organ was delivered by the efferent blood supplied from the lung, which perfused to each organ and t ... || It is reported that the elimination (metabolism and excretion) of MMAE is mainly through CYP3A4-mediated metabolism, biliary/fecal excretion, or urinary excretion. About 80% of MMAE excretes via feces, and only 6% excretes via urine. Therefore, we assumed that MMAE was eliminated only via metabolism and biliary/fecal excretion from the liver. […] For the derivation of CLint based on in vitro data, the CLint, vitro were estimated using human hepatocyte (3 µL/min/10^6 cells) and human ...

[3] = cited from earlier work; remark: listed apart in the source
Description: There are some limitations of our study. First, only one dose level of MMAE was used to build the PBPK model. However, the current 0.1 mg/kg MMAE dose can be high enough to saturate the target, and thus, linear PK can be assumed. […] As more data at lower dose levels become available, the PBPK model can be further refined to elaborate the MMAE–tubulin interaction. Second, the PK profile of free M ...

tumor cells = conditions: cited from earlier work
Text: Table 1 A glossary of literature-derived and estimated parameters used for the MMAE PBPK model. | column: Value

[4] = cited from earlier work; remark: listed apart in the source
Text: The PK profile of MMAE in plasma dropped rapidly, while concentrations in tissues were retained for a prolonged period of time. This could be because of the binding of MMAE to its intracellular target, tubulin. […] Since plasma and tissue concentration profiles were not parallel, plasma exposure ...

[5] = PBPK model fitting and parameter estimation for MMAE; conditions: PBPK model estimate (CV%), mice, 0.1 mg/kg i.v.
Text: The PBPK model included 16 tissues and a tumor compartment, and all of them were connected via blood flow and arranged anatomically. The tissue compartments included blood, lung, heart, kidney, muscle, skin, liver, brain, adipose, thymus, bone, small intestine, large intestine, spleen, pancreas, and other (i.e., carcass). All the other tissues, except those mentioned, were lumped into the ‘other’ compartment. The arterial blood to each organ was delivered by the efferent blood supplied from the lung, which perfused to each organ and then converged into the blood compartment, which represents the venous pool. Venous blood returned from the small intestine, large intestine, spleen, and pancreas were delivered to the liver. For the intestines, spleen, and pancreas, blood was delivered to the liver via the hepatic portal vein and mixed with liver artery blood after leaving the tissues. The delivery of the blood from the blood compartment to the lung completed the circulation of the flow. Based on in vitro, preclinical, and clinical data, the elimination of MMAE was assumed to be predominantly through the CYP3A4/5-mediated metabolic pathway and biliary/fecal excretion. Limited renal excretion (<10%) of MMAE has been reported. Therefore, we assumed that MMAE was eliminated solely via hepatic clearance (CL) from the liver interstitial space.
Each tissue compartment was further divided into the vascular, endothelial cell, interstitial, and cellular sub-compartments, and vascular space was divided into plasma and blood cells, as shown in Figure 1b. We aimed to make the sub-compartment division the same as our previously published platform antibody PBPK model, and thus, one can easily connect MMAE and an antibody PBPK model to build an ADC PBPK model. The rapid distribution of MMAE between plasma, endothelial cells, and interstitial space was assumed, and thus, the distribution rate between these compartments was set as a value 1000 times higher than the value of blood flow in each tissue. […] The partitioning of MMAE to the blood cells or cellular space was characterized using the KP values. The calculated KP values were adjusted for the ratios of cellular space volume to total tissue volume by dividing KP values with the ratio in each tissue. […] Only free MMAE was assumed to diffuse through the cellular membrane, and thus, the fraction of unbound drug in blood cells or tissue cellular space ( fu,t ) was calculated using Equation (2). (2) fu,t=fu,p/KP,i,
Equations (3) and (4) describe blood cell and plasma concentrations of MMAE, respectively. Equations that described MMAE concentration in the liver (Equations (5)–(9)), lung (Equations (10)–(14)), a typical tissue (Equations (15)–(19)), and tumor (Equations (20)–(23)) are provided below. In these equations, Qplasmai and QBClung are plasma flow and blood cell flow to the tissue i. Vplasma and VBC are volumes of central plasma and blood cell compartments. Vplasmai , VBCi , Vendoi , VISi , and Vcellulari are volumes of vascular, blood cell, endosomal, interstitial, and cellular compartments for tissue i. Cplasma and CBC are MMAE concentration in systemic plasma and blood cell compartments. Cplasmai , CBCi , Cendoi , CISi , and Ccellulari are MMAE concentration in vascular, blood cell, endosomal, interstitial, and cellular compartments of tissue i. PSBC is the permeability coefficient for the blood cell sub-compartment.
Physiological parameters for mice were obtained from our previously published PBPK model. Radius of the tumor blood capillary ( Rcap ), average distance between two capillaries ( Rkrough ), tumor void volume for MMAE ( ε ), P, D, and efflux rate of MMAE from the cells ( kout ) were obtained from the literature. […]

For `CC[C@H](C)[C@@H]([C@@H](CC(=O)N1CCC[C@H]1[C@H](OC)[C@@H](C)C(=O)N[C@H](C)[C@@H](O)c1ccccc1)OC)N(C)C(=O)[C@@H](NC(=O)[C@@H](NC)C(C)C)C(C)C` [MMAE, Monomethyl auristatin E] (H-[NMeV]V[Dil][Dolaproine]-X1), the “fu,p, fraction unbound in plasma” value [1] is given as 0.8, the excretion via feces [2] is given as “About 80%” and the excretion via urine [2] is given as 6%. For the same compound, the renal excretion [2] was less than 10%, the “dose that induced mortality” value ([3]; rats, single dose) was greater than 0.116 mg/kg and the “single-dose no-observed-adverse-effect level (NOAEL)” value ([3]; rats) was 0.01 mg/kg. For the same compound, the “contribution of free MMAE to tissue total MMAE exposure following ADC administration” value ([3]; ref in-house data) was less than 20%, the “kout, first-order efflux rate of MMAE from intracellular to extracellular space” value (tumor cells) was 0.046 h⁻¹ and the “ε, tumor void volume for MMAE” value (tumor cells) was 0.44. The “D, diffusion rate across the blood vessels” value (tumor cells; tumor) was 0.0104 cm^2/h, the “half-life of MMAE, reported value” [4] was 5.7 h and the “CLint (liver intrinsic clearance)” value [5] was 137 (8.92) mL/h. For the same compound, the “PSblood (permeability-surface area coefficient)” value ([5]; blood cells) was 0.105 (12.6) mL/h, the “PSbone (permeability-surface area coefficient)” value ([5]; bone) was 0.568 (20.9) mL/h and the “PSbrain (permeability-surface area coefficient)” value ([5]; brain) was 0.00825 (40.4) mL/h. The “PSfat (permeability-surface area coefficient)” value ([5]; fat) was 0.588 (23.5) mL/h, the “PSheart (permeability-surface area coefficient)” value ([5]; heart) was 1.47 (17.1) mL/h and the “PSkidney (permeability-surface area coefficient)” value ([5]; kidney) was 14.2 (20.2) mL/h. The “PSliver (permeability-surface area coefficient)” value ([5]; liver) was 49.2 (48.4) mL/h, the “PSlung (permeability-surface area coefficient)” value ([5]; lung) was 2.47 (13.2) mL/h and the “PSmuscle (permeability-surface area coefficient)” value ([5]; muscle) was 3.16 (21.1) mL/h. For the same compound, the “PSpancreas (permeability-surface area coefficient)” value ([5]; pancreas) was 0.0657 (18.7) mL/h, the “PSskin (permeability-surface area coefficient)” value ([5]; skin) was 0.681 (30.6) mL/h and the “PSspleen (permeability-surface area coefficient)” value ([5]; spleen) was 0.457 (18.5) mL/h.
